# According to PubChem BioAssay (NCI):
# Several values for one entry are separate records, joined by “and”; a condition that tells them apart may be missing. Identical values can stand only once.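 GI50 = concentration required for 50% inhibition of growth. At the TGI there is no net growth.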
# Key:
# Assay in all cases: inhibition of tumour cell growth, NCI panel, 384-well format
# [1] = tested on: CAKI-1 renal
# [2] = tested on: HCT-116 colon
# [3] = tested on: ACHN renal
# [4] = tested on: 786-0 renal
# [5] = tested on: UACC-257 melanoma
# [6] = tested on: UO-31 renal
# [7] = tested on: MDA-MB-231 breast
# [8] = tested on: SK-MEL-28 melanoma
# [9] = tested on: SK-OV-3 ovarian
# [10] = tested on: UACC-62 melanoma
# [11] = tested on: OVCAR-4 ovarian
# [12] = tested on: NCI-H322M lung
# [13] = tested on: MCF7 breast
# [14] = tested on: SF-539 CNS
# [15] = tested on: LOX IMVI melanoma
# [16] = tested on: HCC-2998 colon
# [17] = tested on: A498 renal
# [18] = tested on: SN12C renal
# [19] = tested on: HS 578T breast
# [20] = tested on: K-562 leukemia
# [21] = tested on: RXF 393 renal
# [22] = tested on: NCI-H460 NSCLC
# [23] = tested on: SF-295 CNS
# [24] = tested on: OVCAR-3 ovarian
# [25] = tested on: NCI-H522 lung
# [26] = tested on: CCRF-CEM leukemia
# [27] = tested on: EKVX NSCLC
# [28] = tested on: PC-3 prostate
# [29] = tested on: MALME-3M melanoma
# [30] = tested on: HOP-92 NSCLC
# [31] = tested on: SR leukemia
# [32] = tested on: HCT-15 colon
# [33] = tested on: KM12 colon
# [34] = tested on: HT29 colon
# [35] = tested on: M14 melanoma
# [36] = tested on: A549 NSCLC
# [37] = tested on: OVCAR-8 ovarian
# [38] = tested on: SK-MEL-5 melanoma
# [39] = tested on: T-47D breast
# [40] = tested on: U251 glioblastoma
# [41] = tested on: SF-268 CNS
# [42] = tested on: SNB-75 CNS
# [43] = tested on: NCI-H226 lung
# [44] = tested on: HOP-62 NSCLC
# [45] = tested on: SNB-19 CNS
# [46] = tested on: NCI-H23 lung
# [47] = tested on: MDA-MB-435 melanoma
# [48] = tested on: RPMI-8226 leukemia
# [49] = tested on: MDA-MB-468 breast
# [50] = tested on: IGROV1 ovarian
# [51] = tested on: TK-10 renal
# [52] = tested on: DU-145 prostate
# [53] = tested on: SK-MEL-2 melanoma
# [54] = tested on: BT-549 breast
# [55] = tested on: SW-620 colon
# [56] = tested on: NCI/ADR-RES ovarian
# [57] = tested on: HL-60(TB) leukemia
# [58] = tested on: MOLT-4 leukemia
# [59] = tested on: COLO 205 colon
# [60] = tested on: OVCAR-5 ovarian
structure (smiles),measurement,setting,value
O=S(=O)(NCCNC/C=C/c1ccc(Br)cc1)c1cccc2cnccc12,GI50,[1],7.31 µM and 7.09 µM
same,TGI,[1],20.1 µM and 19.8 µM
same,GI50,[2],5.55 µM and 5.73 µM
same,TGI,[2],17.9 µM and 17.3 µM
same,GI50,[3],11.7 µM and 13.5 µM
same,TGI,[3],24 µM and 26.4 µM
same,GI50,[4],7.52 µM and 11.2 µM
same,TGI,[4],20.1 µM and 23.3 µM
same,GI50,[5],2200 nM and 2340 nM
same,TGI,[5],4.51 µM and 5.87 µM
same,GI50,[6],12.5 µM and 13.1 µM
same,TGI,[6],25.1 µM and 26 µM
same,GI50,[7],11.5 µM and 10.9 µM
same,TGI,[7],23.8 µM and 22.9 µM
same,GI50,[8],1880 nM and 4090 nM
same,TGI,[8],15.6 µM and 14 µM
same,GI50,[9],10.4 µM and 10.9 µM
same,TGI,[9],22.2 µM and 22.9 µM
same,GI50,[10],814 nM and 3200 nM
same,TGI,[10],6.43 µM and 10.8 µM
same,GI50,[11],12.8 µM and 13.8 µM
same,TGI,[11],25.5 µM and 26.8 µM
same,GI50,[12],10.2 µM and 10.7 µM
same,TGI,[12],21.9 µM and 22.6 µM
same,GI50,[13],3.15 µM and 5.52 µM
same,TGI,[13],18.8 µM and 18.2 µM
same,GI50,[14],5.11 µM and 10.2 µM
same,TGI,[14],19.7 µM and 21.9 µM
same,GI50,[15],11.6 µM and 10.2 µM
same,TGI,[15],23.9 µM and 22 µM
same,GI50,[16],2150 nM and 2090 nM
same,TGI,[16],3.82 µM and 3.91 µM
same,GI50,[17],5.06 µM and 10.3 µM
same,TGI,[17],19.6 µM and 22.1 µM
same,GI50,[18],13.4 µM and 13.1 µM
same,TGI,[18],26.3 µM and 25.8 µM
same,GI50,[19],4.89 µM and 8.58 µM
same,TGI,[19],16.5 µM and 20.7 µM
same,GI50,[20],1880 nM and 3300 nM
same,TGI,[20],3.88 µM and 10.6 µM
same,GI50,[21],1.08 µM and 5.38 µM
same,TGI,[21],8.71 µM and 18 µM
same,GI50,[22],4.63 µM and 4.23 µM
same,TGI,[22],15.9 µM and 14.5 µM
same,GI50,[23],15.4 µM and 14.7 µM
same,TGI,[23],28.8 µM and 27.9 µM
same,GI50,[24],11.3 µM and 14.7 µM
same,TGI,[24],23.4 µM and 28 µM
same,GI50,[25],12.1 µM and 13.7 µM
same,TGI,[25],24.6 µM and 26.6 µM
same,GI50,[26],3.81 µM and 5.3 µM
same,TGI,[26],11.4 µM and 16.8 µM
same,GI50,[27],6.07 µM and 10 µM
same,TGI,[27],18.9 µM and 21.7 µM
same,GI50,[28],3.6 µM and 6.95 µM
same,TGI,[28],18.6 µM and 19.8 µM
same,GI50,[29],391 nM and 2090 nM
same,TGI,[29],1620 nM and 4150 nM
same,GI50,[30],10.7 µM and 10.8 µM
same,TGI,[30],22.6 µM and 22.7 µM
same,GI50,[31],340 nM and 3270 nM
same,TGI,[31],1.15 µM and 5.05 µM
same,GI50,[32],13.2 µM and 10.1 µM
same,TGI,[32],26.1 µM and 21.9 µM
same,GI50,[33],4.08 µM and 6.28 µM
same,TGI,[33],19 µM and 18.3 µM
same,GI50,[34],3.17 µM and 4.08 µM
same,TGI,[34],9.44 µM and 13.5 µM
same,TGI,[35],3.48 µM and 18.4 µM
same,GI50,[36],14 µM
same,TGI,[36],27.1 µM
same,GI50,[37],12.2 µM and 11.8 µM
same,TGI,[37],24.7 µM and 24.2 µM
same,GI50,[38],2.89 µM and 3.31 µM
same,TGI,[38],10.1 µM and 12.7 µM
same,GI50,[39],2.78 µM and 4.36 µM
same,TGI,[39],13.3 µM and 16.8 µM
same,GI50,[40],12.3 µM and 12.5 µM
same,TGI,[40],24.9 µM and 25.2 µM
same,GI50,[41],12 µM and 12.9 µM
same,TGI,[41],24.4 µM and 25.6 µM
same,GI50,[42],10.3 µM and 10.8 µM
same,TGI,[42],22 µM and 22.7 µM
same,GI50,[43],11.2 µM and 15.4 µM
same,TGI,[43],23.4 µM and 28.8 µM
same,GI50,[44],11.8 µM and 14.2 µM
same,TGI,[44],24.2 µM and 27.3 µM
same,GI50,[45],17 µM and 16.1 µM
same,TGI,[45],30.8 µM and 29.7 µM
same,GI50,[46],6.06 µM and 10 µM
same,TGI,[46],20.3 µM and 21.6 µM
same,GI50,[47],13 µM and 13.2 µM
same,TGI,[47],25.7 µM and 26 µM
same,GI50,[48],815 nM and 3150 nM
same,TGI,[48],5.43 µM and 11.4 µM
same,GI50,[49],3.44 µM and 3.33 µM
same,TGI,[49],9.73 µM and 12.7 µM
same,GI50,[50],11.1 µM
same,TGI,[50],23.3 µM
same,GI50,[51],10.4 µM and 11.3 µM
same,TGI,[51],22.2 µM and 23.5 µM
same,GI50,[52],14.5 µM and 13.8 µM
same,TGI,[52],27.8 µM and 26.9 µM
same,GI50,[53],2740 nM
same,TGI,[53],6.86 µM
same,GI50,[54],3.57 µM and 6.51 µM
same,TGI,[54],11.8 µM and 19.2 µM
same,GI50,[55],14 µM and 14.8 µM
same,TGI,[55],27.1 µM and 28.2 µM
same,GI50,[56],13.2 µM and 14.6 µM
same,TGI,[56],26.1 µM and 27.9 µM
same,GI50,[57],1210 nM and 3620 nM
same,TGI,[57],10.8 µM and 12.6 µM
same,GI50,[58],2.47 µM and 3.65 µM
same,TGI,[58],6.41 µM and 12.7 µM
same,TGI,[59],2.6 µM and 16.1 µM
same,GI50,[60],12.7 µM
same,TGI,[60],25.4 µM
